Source: article PMC6290777, “Inhalation of the prodrug PI3K inhibitor CL27c improves lung function in asthma and fibrosis” (Nature Communications, 2018)

How the values were obtained:
[1] = tested on: murine bone marrow-derived macrophages; test: BMDM migration (Boyden chamber); type: cell-based, mouse; settings: CXCL12 100 nM and C5a 50 nM; CL27c 1 and 10 µM
Description: For the migration assay, BMDMs (isolated as above described) were pretreated with Versene (Gibco™ #15040066) to detach them from the plate, washed, and incubated with free RPMI with different concentrations of CL27c for at least 2 h. Migration assay was subsequently performed by using a Boyden chamber toward C5a (50 nM, Sigma-Aldrich #SRP4895A) and CXCL12 (100 nM, Peprotech #250-20A) chemokines for 1 h at 37 °C, 5% CO2. Migrated BMDMs, attached to the polycarbonate of the Boyden chamber, were stained with Diff-Quik® reagent (MICROPTIC S.L. #DQ-ST) and counted at the microscope (5 fields/sample). The percentage of migrated cells was calculated by relating the number of the treated cells with the control vehicle (free RPMI).

[2] = tested on: glucocorticoid-resistant neutrophilic asthma; test: Glucocorticoid-resistant asthma model; type: in vivo, BALB/c mice; settings: CL27c 2 mg/ml aerosol
Description: BALF was performed to obtain leukocytes from alveolar space. The trachea was exposed and a 1.7-mm-outside-diameter polyethylene catheter was inserted. BAL was performed by washing the lungs three-times with three different 500 µl aliquots of PBS. BALF samples were centrifuged at 600 × g for 10 min at 4 °C on a histology glass slide and stained with Diff Quick (MICROPTIC, #DQ-ST). The number of leukocytes and differential counts of different population were obtained evaluating the percentage leukocyte populations over the total cell number.
Mice were anesthetized with a subcutaneous injection of ketamine and xylazine (130 mg/Kg ketamine and 8.5 mg/Kg xylazine) to maintain spontaneous breathing under anesthesia. Mice were tracheostomized, placed in a body plethysmograph and connected to a computer-controlled ventilator (Forced Pulmonary Maneuver System®, Buxco Research Systems©, Wilmington, North Carolina USA). First, an average breathing frequency of 160 breaths/min was imposed to the anesthetized animal by a pressure-controlled ventilation until a regular breathing pattern and complete expiration at each breathing cycle was obtained. Under mechanical respiration, respiratory flow and airway pressure were measured to compute dynamic compliance (Cdyn) and lung resistance (RL). To measure the TLC, pressure–volume maneuvers were performed, where lungs were inflated to a standard pressure of +30 cm H2O and then let slowly exhale until a negative pressure of −30 cm H2O was reached. To measure the FEV Fast-Flow Volume maneuvers was performed. In this maneuver, lungs were first inflated to +30 cm H2O (TLC) and, immediately, a negative pressure (−30 cm H2O) was applied in order to enforce expiration. To evaluate AHR, the same mice used in previous maneuvers (basal condition) received Metacholine, 1 mg/Kg (Acetyl-β-methylcholine chloride, A-2251, Sigma-Aldrich St.Louis, MO,USA) i.v., and 20 sec after, a new set of maneuvers were conducted to assess RL changes. Suboptimal maneuvers were rejected and for each test in every single mouse at least three acceptable maneuvers were conducted to obtain a reliable mean for all numeric parameters.
IL-5, IL-13, eotaxin, TGF-β, KC, IL-17A, and MCP-1 levels in the BALF and anti-OVA IgE levels in serum were measured by ELISA technique using commercial DuoSet kits R&D Systems according to the instructions of the manufacturer. Results were expressed in levels of cytokines per ml of […] (pg/ml) or arbitrary units (A.U.).
On day 1 BALB/c mice received systemic immunization by subcutaneous injection of 20 µg of chicken egg ovalbumin (OVA grade V, >98% pure; Sigma, St Louis, MO) in saline, emulsified in 75 µL CFA (Complete Freund’s Adjuvant; Sigma-Aldrich) (Figure 5)[52]. On days 25–28 mice were exposed to aerosolised ovalbumin (1% in saline) for 20 min per day. Mice were exposed during 30 min to aerosolized CL27c (2 mg/ml dissolved in 0.5 % tylaxopol/saline solution) or vehicle (0.5% tyloxapol/saline solution), or to systemic treatment with dexamethasone (5 mg/kg i.p. injection). Untreated control groups included mice challenged with PBS alone. On day 29, mice were sacrificed, and samples were collected for further analysis.
The left lung was removed and fixed in 4% neutral phosphate-buffered formalin (pH 7.4)[10]. The tissues were dehydrated gradually in ethanol, embedded in paraffin, cut into 4 µm sections, stained with H&E, Gomori’s trichrome and periodic acid schiff (PAS), and examined under light microscopy by a pathologist in a double blinded manner. Images of lung sections were captured with a digital camera (Optronics DEI-470) connected to a microscope (Olympus IX70) with a magnification of ×40 or ×100. Inflammation was scored according to modification of existing protocols[53] and to the histopathology criteria reported in Supplementary Table 4.

[3] = Glycemia and insulin challenge after inhaled CL27c; type: in vivo, mice; settings: N.S. vs vehicle
Description: To define whether this prodrug was suitable for inhaled administration, CL27c was studied to evaluate selected ADME (absorption, distribution, metabolism, and excretion) and pharmacokinetic properties. First, stability of CL27c and CL27e was analyzed in mouse plasma (Supplementary Table 1) and in mouse, rat, and human liver microsomes in the presence of nicotinamide adenine dinucleotide phosphate (NADPH; Supplementary Table 2). Next, clearance of CL27c was analyzed in C57BL/6J mice after either intra-venous or oral administration. […] Clearance of CL27c and CL27e after oral administration could not be determined due to their low bioavailability (Supplementary Table 3). Next, pharmacokinetics after inhalation was studied in C57BL/6J mice after delivering an aerosolized micro-suspension of CL27c. As shown in Table 1 and Supplementary Fig. 1b, CL27c dose-dependently reached the lungs and its metabolite CL27e was detectable after inhalation of the highest dose. […] Therefore, the inhaled prodrug promotes local effects but prevents systemic absorption of pharmacologically relevant amounts of the active compound.
Animals were fasted overnight and, the day after, they were treated for 30 min with aerosolized CL27c (2 mg/ml in 0.5 % tylaxopol/saline solution). […]

COC(=O)c1cccc(Cn2cc(-c3cccc4c(=O)cc(N5CCOCC5)[nH]c34)nn2)c1 [CL27c]
chemotaxis of BMDM [1]: significantly reduce CXCL12- and C5a-induced chemotaxis
abundance of cytokines (MCP-1, IL-17A, KC, Eotaxin, IFN-γ) [2]: could not block systemic production of these mediators
airway hyperreactivity and lung resistance ([2]; dexamethasone 5 mg/kg i.p.): without modifying either airway hyperreactivity or lung resistance
histopathology: overall score of lung damage / tissue inflammation ([2]; dexamethasone 5 mg/kg i.p.): significantly reduce the overall score of lung damage
lung compliance (Cdyn) ([2]; dexamethasone 5 mg/kg i.p.): restored normal lung compliance
number of inflammatory cells in BALF ([2]; dexamethasone 5 mg/kg i.p.): reduce the number of inflammatory cells in BALF
drop in glycemia 10 min after an insulin challenge [3]: 17.45 ± 3.00 % drop
glycemia [3]: 213.0 ± 5.6 mg/dL
